{"source": "patent US11344527B2", "about": "“Methods and compositions for treating cancer” (Sutter West Bay Hospitals, priority 2007, dated 2022)", "key": {"[1]": {"system": "Id-1", "assay": "Id-1 protein expression by quantitative Western analysis, MDA-MB231", "format": "cell-based, human", "settings": "MDA-MB231 cells, 1.5 μM, two days, FIG. 1E", "text": "Proteins were separated by SDS/PAGE, blotted on Immobilon membrane, and probed with anti-Id-1 and the appropriate secondary antibody. Band intensity values were obtained directly from the blot using AlphaeaseFC software (San Leandro, Calif.) or from film using Image-J (NIH, MD). As a normalization control for loading, blots were stripped and re-probed with mouse alpha-tubulin (Abeam, Cambridge, Mass.).\nThe ability of CBD to regulate the expression of key genes that control breast cancer cell aggressiveness and invasiveness was determined A potential candidate protein that could mediate the effects of CBD on both phenotypes was the helix-loop-helix protein Id-1. […] The inhibitory effect of CBD on Id-1 expression occurred at concentrations as low as 100 nM. […] The CBD concentrations effective at inhibiting Id-1 expression correlated with those used to inhibit the proliferative and invasive phenotype of MDA-MB231 cells. Furthermore, the time period needed to observe the down-regulation of Id-1 protein in the presence of CBD correlated with the inhibitory effects of CBD on the aggressiveness and invasiveness of MDA-MB231 cells (FIG. 1, panel D).\nIn order to determine the SAR between cannabinoids and the inhibition of Id-1, MDA-MB231 cells were treated for two days with multiple cannabinoid compounds and Id-1 protein levels were assessed."}, "[2]": {"system": "SF126 cells", "assay": "MTT cell proliferation assay, SF126 GBM cells", "format": "cell-based, human", "procedure": "(§1) The human GBM cell lines used were SF126, U87 and U251. Cell lines were maintained at 37° C. and 5% CO2.\n(§2) Treatment groups were divided into 1) no treatment (control), 2) Δ^9-THC alone, 3) CBD alone, 4) Δ^9-THC and CBD combined. Positive and negative aspects of constituent interaction were determined in this 2×2 design using 2-way analysis of variance as described by (Slinker, 1998). […] Significant differences were also determined using ANOVA where suitable. […] P values <0.05 defined statistical significance."}, "[3]": {"system": "MDA-MB231 cells", "assay": "MTT cell proliferation assay, MDA-MB231", "settings": "read-out: IC50 antiproliferative, MDA-MB231"}, "[4]": {"system": "MDA-MB436 cells", "assay": "MTT cell proliferation assay, MDA-MB436", "settings": "read-out: IC50 antiproliferative, MDA-MB436"}, "[5]": {"system": "U251 cells", "assay": "MTT cell proliferation assay, U251 GBM cells", "format": "cell-based, human", "settings": "95% confidence limits", "procedure": "as §1, §2"}, "[6]": {"system": "Id-1", "assay": "Id-1 protein expression by Western blot, U251", "format": "cell-based, human", "settings": "FIG. 11"}, "[7]": {"system": "U87 cells", "assay": "MTT cell proliferation assay, U87 GBM cells", "format": "cell-based, human", "settings": "95% confidence limits", "procedure": "as §1, §2"}, "[8]": {"system": "ERK, JNK, and p38 MAPK", "assay": "MAPK activity (pERK, ERK, JNK, p38) by Western analysis, U251", "format": "cell-based, human", "procedure": "Cells cultured and treated in 6-well dishes were washed twice with cold PBS. Lysis buffer was added and cells lysed by freezing for 10 min at −70° C. and then thawing. Cell lysate was collected and the concentration was determined using Bradford reagent. Equal amounts of protein were heated to 90° C. in Laemmli sample buffer with β-mercaptoethanol, and loaded onto a precast SDS-PAGE gel (Bio-Rad Laboratories, Hercules, Calif.). Protein was transferred to an Immobilon membrane (Millipore, Billerica, Mass.) overnight at 2-4° C. Blots were then blocked with 5% nonfat dry milk in TBS+Tween for 1 h. Primary antibody from Millipore (rabbit anti-phospho-JNK, rabbit anti-phospho-p38, rabbit anti-phospho-ERK1/2 and rabbit anti-ERK1/2, 1 mcg/mL) in blocking buffer was then added for 1 h. The blots were then rinsed three times 10 min with TBS+Tween. Secondary antibody (Donkey Anti-Rabbit IgG, Jackson Immunoresearch, West Grove, Pa.) was then added. Blots were incubated for 45 min and then washed 4 times for 15 min each. The blots were developed with SuperSignal Femto (Pierce, Rockford, Ill.), and imaged on either a Fluorchem 8900 (Alpha Innotech, San Leandro, Calif.) or ECL Hyperfilm (Amersham-Pharmacia, Piscataway, N.J.). Band intensity values were obtained (after background subtraction) directly from the […] using AlphaeaseFC software (San Leandro, Calif.) or from film using Image-J (NIH, MD). As a normalization control for loading, blots were stripped and re-probed with mouse alpha-tubulin (Abcam, Cambridge, Mass.) and goat anti-mouse IgG (Jackson Immunoresearch) for the primary and secondary antibodies, respectively.\nThe regulation of ERK, JNK, and p38 MAPK activity plays a role in controlling cell growth and apoptosis. U251 cells were used to determine whether modulation of ERK, JNK, and p38 MAPK activity occurred."}, "[9]": {"system": "U251 cells", "assay": "Cell cycle analysis (PI staining, FACS), U251", "format": "cell-based, human", "settings": "Δ9-THC 1.7 μM and/or CBD 0.4 μM, FIG. 8", "procedure": "U251 cells were grown in Petri dishes (100 mm×15 mm) and received drug treatments for 2 days. On the third day, the cells were harvested and centrifuged at 1200 rpm for 5 minutes. The pellet was washed 1× with PBS+1% BSA, and centrifuged again. The pellet was resuspended in 0.5 ml of 2% paraformaldehyde (diluted with PBS) and left to fix overnight at room temperature. The next day the cells were pelleted and resuspended in 0.5 ml 0.3% Triton in PBS and incubated for 5 minutes at room temperature. The cells were then washed 2 times with PBS+1% BSA. The cells were finally suspended in PBS (0.1% BSA) with 10 ug/ml Propidium Iodide and 100 μg/ml RNAse. The cells were incubated for 30 minutes at room temperature before being stored at 4 C. Cell cycle was measured using a FACS Calibur using Cell Quest Pro and Modfit software."}, "[10]": {"system": "MDA-MB231 cells", "assay": "Boyden chamber invasion assay, MDA-MB231", "format": "cell-based, human", "settings": "for invasion of MDA-MB231 cells: 0.1, 1.0 or 1.5 μM, FIG. 1A", "procedure": "Invasion is an important step towards breast cancer cell metastasis. Therefore, the effects of several cannabinoids were tested on their ability to modulate the migratory and invasiveness activity of the most aggressive human breast cancer cell line, MDA-MB231, in a reconstituted basement membrane in a Boyden chamber."}, "[11]": {"system": "Id-1 promoter", "assay": "Id-1 promoter luciferase reporter assay, MDA-MB231", "format": "cell-based, human", "settings": "MDA-MB231 cells, 1.5 μM, 2 or 3 days; FIG. 2B, C", "procedure": "A SacI-BspHI fragment of 2.2 kb corresponding to the 5′ upstream region of human Id-1 gene and driving a luciferase gene in a PGL-3 vector (Promega) has already been described (Id-1-sbsluc). Cells were plated in six well dishes in medium supplemented with 10% FBS and 5 μg/ml insulin. After 24 h, cells were cotransfected with […] of luciferase reporter plasmids and 2 μg of pCMVβ (Clontech) using superfect reagent (Qiagen). pCMVβ contained bacterial β-galactosidase and served to control for variation in transfection efficiency. 3 h after transfection, the cells were rinsed twice with PBS and were cultured in the absence or presence of CBD for 48-72 h. Cell pellets were lysed in 80 μl of reporter lysis buffer (Promega) for 10 min at room temperature. Lysed cells were centrifuged and supernatants harvested. […]\nTo determine if this effect was due to the inhibition of transcription, a construct was used that contained the Id-1 promoter fused to a luciferase reporter in a PGL-3 basic vector. […] Twenty-four hours after transfection, MDA-MB231-Id-1-luc cells were treated with CBD for 2 or 3 days and luciferase activity was measured (FIG. 2, panel B and panel C). […] These findings correlated to the data obtained when the expression of the Id-1 protein was assessed by Western analysis."}, "[12]": {"settings": "Homo sapiens, SF-126, 72 h, three day treatment, 95% confidence limits (Table 4), read-out: IC50 antiproliferative, SF126"}, "[13]": {"settings": "three day treatment, 95% confidence limits (Table 4), read-out: IC50 antiproliferative, SF126"}, "[14]": {"settings": "treated for three days, value with confidence limits"}}, "note": "Entries after “also recorded” stand apart in the source; their conditions may differ. Where two headings read alike, the source gives them in different places.", "data": [{"smiles": "C=C(C)[C@@H]1CCC(C)=C[C@H]1c1c(C)cc(O)cc1O", "note": "[0-1602]", "values": [{"measurement": "inhibition of Id-1 protein (structure activity relationship)", "setting": "[1]", "result": "No inhibition"}]}, {"smiles": "CCCCCc1cc(O)c2c(c1)OC(C)(C)c1ccc(C)cc1-2", "note": "[CBN, cannabinol]", "values": [{"measurement": "IC50", "setting": "[2]; [12]", "result": 1.2, "unit": "µM"}, {"measurement": "inhibition of Id-1 protein (structure activity relationship)", "setting": "[1]", "result": "partially inhibit"}, {"measurement": "IC50", "setting": "[3]; Homo sapiens, MDA-MB-231, 72 h", "result": 1.2, "unit": "µM"}, {"measurement": "IC50", "setting": "[4]; Homo sapiens, MDA-MB-436, 72 h", "result": 2.6, "unit": "µM"}]}, {"smiles": "C=C(C)[C@@H]1CCC(C)=C[C@H]1c1c(O)cc(O)cc1CCCCC", "note": "[Abn-CBD]", "values": [{"measurement": "inhibition of Id-1 protein (structure activity relationship)", "setting": "[1]", "result": "No inhibition"}]}, {"smiles": "CCCCCCC(C)(C)c1ccc([C@@H]2C[C@H](O)CC[C@H]2CCCO)c(O)c1", "note": "[CP 55,940]", "values": [{"measurement": "IC50", "setting": "[2]; [13]", "result": 3.3, "unit": "µM"}, {"measurement": "inhibition of Id-1 protein (structure activity relationship)", "setting": "[1]", "result": "partially inhibit; also recorded: inhibited Id-1 expression"}, {"measurement": "inhibition of Id-1 protein (structure activity relationship)", "setting": "[1]; 940", "result": "small inhibition"}, {"measurement": "IC50", "setting": "[3]; [14]", "result": 2.5, "unit": "µM"}, {"measurement": "IC50", "setting": "[4]; [14]", "result": 1.3, "unit": "µM"}]}, {"smiles": "C=C(C)[C@@H]1CCC(C)=C[C@H]1c1c(O)cc(CCCCC)cc1O", "note": "[CBD, cannabidiol]", "values": [{"measurement": "IC50", "setting": "[5]; Homo sapiens, U-251, 72 h, three day treatment, read-out: CBD IC50, U251", "result": 0.6, "unit": "µM"}, {"measurement": "Id-1 protein expression in U251 cells", "setting": "[6]", "result": "concentration-dependent inhibition"}, {"measurement": "IC50", "setting": "[7]; Homo sapiens, U-87 MG, 72 h, three day treatment, read-out: CBD IC50, U87", "result": 0.7, "unit": "µM"}, {"measurement": "IC50", "setting": "[2]; [12]", "result": 1.2, "unit": "µM"}, {"measurement": "IC50", "setting": "[2]; Homo sapiens, SF-126, 72 h, three day treatment, 95% confidence limits, read-out: CBD IC50, SF126", "result": 1.2, "unit": "µM"}, {"measurement": "IC50", "setting": "[2]; Homo sapiens, SF-126, limits 0.64-0.82, reported with the Table 3 experiments, read-out: IC50 antiproliferative, SF126", "result": 0.73, "unit": "µM"}, {"measurement": "p-ERK, higher concentrations alone compared with the combination", "setting": "[8]; U251, three days, 2.5 μM Δ9-THC, 2.0 μM CBD, or 1.7 μM/0.4 μM combination, FIG. 6D", "result": "small inhibition"}, {"measurement": "p-ERK", "setting": "[8]; U251, Δ9-THC 1.7 μM and/or CBD 0.4 μM, two days, FIG. 4", "result": "no changes"}, {"measurement": "cell cycle distribution", "setting": "[9]", "result": "increases in the population of cells in G1 and G2/M phase and decreases in cells in S phase"}, {"measurement": "cell invasiveness, control MDA-MB231 (-Id1) cells", "setting": "[10]; 1.5 μM, two day treatment, empty pLXSN vector, FIG. 7", "result": "significant reduction"}, {"measurement": "invasion of MDA-MB231 cells", "setting": "[10]", "result": "significantly reduced"}, {"measurement": "Id-1 promoter luciferase activity", "setting": "[11]", "result": "significant inhibition"}, {"measurement": "IC50", "setting": "[4]; Homo sapiens, MDA-MB-436, 72 h", "result": 1.5, "unit": "µM"}]}, {"smiles": "CCCCCc1cc(O)c(C/C=C(\\C)CCC=C(C)C)c(O)c1", "note": "[CBG, cannabigerol]", "values": [{"measurement": "IC50", "setting": "[2]; [12]", "result": 1.6, "unit": "µM"}, {"measurement": "IC50", "setting": "[3]; Homo sapiens, MDA-MB-231, 72 h", "result": 2.3, "unit": "µM"}, {"measurement": "IC50", "setting": "[4]; Homo sapiens, MDA-MB-436, 72 h", "result": 2.1, "unit": "µM"}]}, {"smiles": "Cc1c(C(=O)c2cccc3ccccc23)c2cccc3c2n1[C@H](CN1CCOCC1)CO3", "note": "[WIN 55,212-2]", "values": [{"measurement": "IC50", "setting": "[5]; seven day treatment, read-out: IC50 antiproliferative, U251", "result": 1.1, "unit": "µM"}, {"measurement": "IC50", "setting": "[7]; seven day treatment, read-out: IC50 antiproliferative, U87", "result": 0.77, "unit": "µM"}, {"measurement": "IC50", "setting": "[2]; seven day treatment, 95% confidence limits, read-out: IC50 antiproliferative, SF126", "result": 0.84, "unit": "µM"}, {"measurement": "IC50", "setting": "[2]; [13]", "result": 1.3, "unit": "µM"}, {"measurement": "invasion of MDA-MB231 cells", "setting": "[10]", "result": "significantly reduced"}, {"measurement": "IC50", "setting": "[3]; [14]", "result": 1.7, "unit": "µM"}, {"measurement": "IC50", "setting": "[4]; [14]", "result": 2.4, "unit": "µM"}]}]}
